Paper PMC12406203 (Journal of Medicinal Chemistry, 2025)

Columns and labels:
Test in all cases: KINOMEscan
Format in all cases: binding
[1] = biological target: T1, ABL1(E255K)-phosphorylated (Homo sapiens, UniProt P00519, E255K)
T1 construct: purchased Eurofins DiscoverX, LLC; host or cells: E. coli BL21-derived (T7 phage) or HEK-293

MLK1 = biological target: T2, MLK1 (Homo sapiens, UniProt P80192)
T2 construct: purchased Eurofins DiscoverX, LLC; host or cells: E. coli (BL21-derived, T7 phage) or HEK-293
T2 sequence (P80192 whole entry): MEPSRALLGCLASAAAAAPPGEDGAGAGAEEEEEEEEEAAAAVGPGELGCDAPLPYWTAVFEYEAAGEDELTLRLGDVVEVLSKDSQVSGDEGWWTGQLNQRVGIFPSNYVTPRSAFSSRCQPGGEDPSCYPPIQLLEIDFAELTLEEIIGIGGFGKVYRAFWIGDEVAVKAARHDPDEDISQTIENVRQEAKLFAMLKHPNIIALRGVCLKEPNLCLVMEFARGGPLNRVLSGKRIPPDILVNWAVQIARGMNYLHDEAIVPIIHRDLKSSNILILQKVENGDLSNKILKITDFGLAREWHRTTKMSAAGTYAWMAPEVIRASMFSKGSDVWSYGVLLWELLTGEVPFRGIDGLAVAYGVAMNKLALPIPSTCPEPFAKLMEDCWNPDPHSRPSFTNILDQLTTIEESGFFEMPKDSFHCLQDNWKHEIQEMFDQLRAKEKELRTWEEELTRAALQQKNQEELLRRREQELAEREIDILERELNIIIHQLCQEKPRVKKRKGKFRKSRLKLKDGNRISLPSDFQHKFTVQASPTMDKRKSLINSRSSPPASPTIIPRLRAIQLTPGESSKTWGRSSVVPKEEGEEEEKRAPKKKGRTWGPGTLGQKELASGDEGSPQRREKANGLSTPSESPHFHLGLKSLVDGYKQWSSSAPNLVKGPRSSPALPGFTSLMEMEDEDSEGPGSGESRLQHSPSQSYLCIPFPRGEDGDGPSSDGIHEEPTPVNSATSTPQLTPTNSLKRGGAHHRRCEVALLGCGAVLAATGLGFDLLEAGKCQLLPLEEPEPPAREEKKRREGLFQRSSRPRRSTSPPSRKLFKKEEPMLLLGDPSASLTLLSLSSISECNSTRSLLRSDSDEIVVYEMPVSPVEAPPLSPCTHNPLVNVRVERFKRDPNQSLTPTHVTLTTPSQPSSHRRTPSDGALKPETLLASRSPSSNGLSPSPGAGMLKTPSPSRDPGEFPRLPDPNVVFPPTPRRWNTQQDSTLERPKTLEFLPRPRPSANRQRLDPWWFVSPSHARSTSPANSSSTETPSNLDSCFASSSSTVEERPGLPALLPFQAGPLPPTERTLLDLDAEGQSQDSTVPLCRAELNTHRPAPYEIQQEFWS

PIK3C2B = biological target: T3, PIK3C2B (Homo sapiens, UniProt O00750)
T3 construct: purchased Eurofins DiscoverX, LLC; host or cells: E. coli BL21-derived host (T7 phage) or HEK-293
T3 sequence (O00750 whole entry): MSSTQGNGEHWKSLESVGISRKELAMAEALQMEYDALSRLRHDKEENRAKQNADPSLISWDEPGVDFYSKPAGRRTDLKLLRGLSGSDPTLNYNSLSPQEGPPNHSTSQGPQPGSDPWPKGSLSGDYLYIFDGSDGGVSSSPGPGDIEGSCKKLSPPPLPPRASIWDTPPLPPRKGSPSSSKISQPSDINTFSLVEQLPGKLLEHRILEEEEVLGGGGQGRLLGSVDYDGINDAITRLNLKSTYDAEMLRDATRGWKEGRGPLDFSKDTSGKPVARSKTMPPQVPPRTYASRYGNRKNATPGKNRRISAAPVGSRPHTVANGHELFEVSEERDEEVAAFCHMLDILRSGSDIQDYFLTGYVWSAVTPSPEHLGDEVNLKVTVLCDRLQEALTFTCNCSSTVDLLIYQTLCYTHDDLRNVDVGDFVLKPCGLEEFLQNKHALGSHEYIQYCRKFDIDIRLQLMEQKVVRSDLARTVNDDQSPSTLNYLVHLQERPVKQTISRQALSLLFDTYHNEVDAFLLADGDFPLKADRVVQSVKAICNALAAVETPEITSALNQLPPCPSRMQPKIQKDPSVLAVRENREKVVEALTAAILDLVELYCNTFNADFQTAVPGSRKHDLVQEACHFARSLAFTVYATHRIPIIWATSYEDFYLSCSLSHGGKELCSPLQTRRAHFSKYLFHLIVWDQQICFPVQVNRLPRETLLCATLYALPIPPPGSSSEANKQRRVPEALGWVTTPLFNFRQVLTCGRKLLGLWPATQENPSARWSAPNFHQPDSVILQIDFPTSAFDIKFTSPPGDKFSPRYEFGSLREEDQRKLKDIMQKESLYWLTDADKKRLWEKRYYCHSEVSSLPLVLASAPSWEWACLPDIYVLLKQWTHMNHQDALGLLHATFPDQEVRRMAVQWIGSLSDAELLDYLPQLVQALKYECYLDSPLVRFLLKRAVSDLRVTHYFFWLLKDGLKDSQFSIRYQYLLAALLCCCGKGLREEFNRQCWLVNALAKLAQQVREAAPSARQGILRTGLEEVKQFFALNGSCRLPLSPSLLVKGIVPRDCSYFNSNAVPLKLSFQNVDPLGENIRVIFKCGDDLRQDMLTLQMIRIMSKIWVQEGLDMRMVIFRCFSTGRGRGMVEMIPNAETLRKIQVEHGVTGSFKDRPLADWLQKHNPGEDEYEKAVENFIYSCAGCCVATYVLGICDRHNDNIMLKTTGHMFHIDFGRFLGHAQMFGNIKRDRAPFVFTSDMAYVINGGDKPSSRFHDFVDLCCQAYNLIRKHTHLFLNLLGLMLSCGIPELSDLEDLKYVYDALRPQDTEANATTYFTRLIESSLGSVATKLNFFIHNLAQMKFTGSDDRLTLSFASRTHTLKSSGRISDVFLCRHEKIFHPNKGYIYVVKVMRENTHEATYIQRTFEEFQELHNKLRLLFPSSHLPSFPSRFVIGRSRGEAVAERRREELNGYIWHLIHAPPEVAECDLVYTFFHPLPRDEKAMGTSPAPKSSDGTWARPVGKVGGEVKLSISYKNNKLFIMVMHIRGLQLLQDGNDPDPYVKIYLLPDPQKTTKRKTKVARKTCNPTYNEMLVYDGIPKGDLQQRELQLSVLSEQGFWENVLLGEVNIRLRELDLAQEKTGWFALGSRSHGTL

RAF1 = biological target: T4, RAF1 (Homo sapiens, UniProt P04049)
T4 construct: purchased Eurofins DiscoverX, LLC; host or cells: E. coli BL21-derived host (T7 phage) or HEK-293

PAK4 = biological target: T5, PAK4 (Homo sapiens, UniProt O96013)
T5 construct: purchased Eurofins DiscoverX, LLC; host or cells: E. coli BL21-derived host (T7 phage) or HEK-293
T5 sequence (O96013 whole entry): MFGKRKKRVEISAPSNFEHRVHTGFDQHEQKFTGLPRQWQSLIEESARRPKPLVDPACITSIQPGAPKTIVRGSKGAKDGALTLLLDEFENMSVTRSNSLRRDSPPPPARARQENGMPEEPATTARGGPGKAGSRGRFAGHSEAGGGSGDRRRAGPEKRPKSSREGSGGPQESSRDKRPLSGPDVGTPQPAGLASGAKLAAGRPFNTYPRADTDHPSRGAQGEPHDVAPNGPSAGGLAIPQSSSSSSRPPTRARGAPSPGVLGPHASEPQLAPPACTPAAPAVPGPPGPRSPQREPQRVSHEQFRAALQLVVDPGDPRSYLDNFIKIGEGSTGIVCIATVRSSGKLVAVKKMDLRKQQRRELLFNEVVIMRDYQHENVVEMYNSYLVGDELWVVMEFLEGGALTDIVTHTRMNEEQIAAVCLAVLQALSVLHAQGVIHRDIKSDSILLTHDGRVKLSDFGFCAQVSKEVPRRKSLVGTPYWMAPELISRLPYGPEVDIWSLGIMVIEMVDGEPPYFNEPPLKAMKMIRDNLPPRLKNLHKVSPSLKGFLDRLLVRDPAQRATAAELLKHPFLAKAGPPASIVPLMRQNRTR

FGFR3 = biological target: T6, FGFR3 (Homo sapiens, UniProt P22607)
T6 construct: purchased Eurofins DiscoverX, LLC; host or cells: E. coli (T7 phage) or HEK-293
T6 sequence (P22607 23-806): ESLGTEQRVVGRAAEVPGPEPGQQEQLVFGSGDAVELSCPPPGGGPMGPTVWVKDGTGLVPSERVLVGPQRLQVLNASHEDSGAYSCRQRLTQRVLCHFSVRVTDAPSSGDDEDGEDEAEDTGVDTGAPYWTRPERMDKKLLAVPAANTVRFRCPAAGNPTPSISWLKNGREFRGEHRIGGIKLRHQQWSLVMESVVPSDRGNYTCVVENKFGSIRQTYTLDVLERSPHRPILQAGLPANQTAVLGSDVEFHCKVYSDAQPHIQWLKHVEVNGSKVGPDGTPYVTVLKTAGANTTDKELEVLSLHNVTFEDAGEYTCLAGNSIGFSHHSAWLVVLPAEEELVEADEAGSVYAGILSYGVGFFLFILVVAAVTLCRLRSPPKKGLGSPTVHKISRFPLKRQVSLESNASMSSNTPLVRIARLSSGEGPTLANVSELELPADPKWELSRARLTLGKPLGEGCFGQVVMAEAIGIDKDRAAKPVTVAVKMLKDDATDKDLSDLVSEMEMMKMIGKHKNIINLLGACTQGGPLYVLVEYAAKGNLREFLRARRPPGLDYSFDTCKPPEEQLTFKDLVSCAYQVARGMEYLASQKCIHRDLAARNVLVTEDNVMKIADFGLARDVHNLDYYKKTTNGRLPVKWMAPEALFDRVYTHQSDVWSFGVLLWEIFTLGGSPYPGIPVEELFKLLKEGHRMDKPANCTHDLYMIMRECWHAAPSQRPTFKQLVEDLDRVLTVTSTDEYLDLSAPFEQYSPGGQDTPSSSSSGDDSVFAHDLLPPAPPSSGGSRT

IGF1R = biological target: T7, IGF1R (Homo sapiens, UniProt P08069)
T7 construct: purchased Eurofins DiscoverX, LLC; host or cells: E. coli (T7 phage) or HEK-293

ERBB4 = biological target: T8, ERBB4 (Homo sapiens, UniProt Q15303)
T8 construct: purchased Eurofins DiscoverX, LLC; host or cells: E. coli (T7 phage) or HEK-293

[2] = biological target: T9, ABL1(T315I)-phosphorylated (Homo sapiens, UniProt P00519, T315I)
T9 construct: purchased Eurofins DiscoverX, LLC; host or cells: E. coli BL21-derived (T7 phage) or HEK-293

RET = biological target: T10, RET (Homo sapiens, UniProt P07949)
T10 construct: purchased Eurofins DiscoverX, LLC; host or cells: E. coli BL21-derived host (T7 phage) or HEK-293

PIM3 = biological target: T11, PIM3 (Homo sapiens, UniProt Q86V86)
T11 construct: purchased Eurofins DiscoverX, LLC; host or cells: E. coli BL21-derived host (T7 phage) or HEK-293

DCAMKL1 = biological target: T12, DCAMKL1 (Homo sapiens, UniProt O15075)
T12 construct: purchased Eurofins DiscoverX, LLC; host or cells: E. coli (T7 phage) or HEK-293
T12 sequence (O15075 1-740): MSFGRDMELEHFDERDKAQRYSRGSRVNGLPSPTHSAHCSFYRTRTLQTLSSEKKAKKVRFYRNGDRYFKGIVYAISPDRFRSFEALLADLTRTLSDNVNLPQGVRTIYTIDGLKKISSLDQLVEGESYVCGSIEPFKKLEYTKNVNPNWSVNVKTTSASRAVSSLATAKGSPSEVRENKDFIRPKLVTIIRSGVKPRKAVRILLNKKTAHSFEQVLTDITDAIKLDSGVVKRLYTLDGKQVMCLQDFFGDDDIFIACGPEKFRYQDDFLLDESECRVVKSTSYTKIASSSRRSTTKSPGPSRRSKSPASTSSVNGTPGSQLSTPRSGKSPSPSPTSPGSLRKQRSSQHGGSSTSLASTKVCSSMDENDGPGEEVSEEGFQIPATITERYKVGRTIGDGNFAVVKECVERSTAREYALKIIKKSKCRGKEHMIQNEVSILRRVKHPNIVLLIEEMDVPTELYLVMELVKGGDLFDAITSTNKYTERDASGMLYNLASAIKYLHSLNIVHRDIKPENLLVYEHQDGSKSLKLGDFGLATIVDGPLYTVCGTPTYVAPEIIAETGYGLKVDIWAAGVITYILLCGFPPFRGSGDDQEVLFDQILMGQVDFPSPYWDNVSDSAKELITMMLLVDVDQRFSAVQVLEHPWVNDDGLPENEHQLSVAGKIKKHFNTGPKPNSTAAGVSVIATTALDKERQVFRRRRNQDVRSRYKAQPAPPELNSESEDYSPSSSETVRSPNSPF

PAK1 = biological target: T13, PAK1 (Homo sapiens, UniProt Q13153)
T13 construct: purchased Eurofins DiscoverX, LLC; host or cells: E. coli (BL21-derived, T7 phage) or HEK-293
T13 sequence (Q13153 whole entry): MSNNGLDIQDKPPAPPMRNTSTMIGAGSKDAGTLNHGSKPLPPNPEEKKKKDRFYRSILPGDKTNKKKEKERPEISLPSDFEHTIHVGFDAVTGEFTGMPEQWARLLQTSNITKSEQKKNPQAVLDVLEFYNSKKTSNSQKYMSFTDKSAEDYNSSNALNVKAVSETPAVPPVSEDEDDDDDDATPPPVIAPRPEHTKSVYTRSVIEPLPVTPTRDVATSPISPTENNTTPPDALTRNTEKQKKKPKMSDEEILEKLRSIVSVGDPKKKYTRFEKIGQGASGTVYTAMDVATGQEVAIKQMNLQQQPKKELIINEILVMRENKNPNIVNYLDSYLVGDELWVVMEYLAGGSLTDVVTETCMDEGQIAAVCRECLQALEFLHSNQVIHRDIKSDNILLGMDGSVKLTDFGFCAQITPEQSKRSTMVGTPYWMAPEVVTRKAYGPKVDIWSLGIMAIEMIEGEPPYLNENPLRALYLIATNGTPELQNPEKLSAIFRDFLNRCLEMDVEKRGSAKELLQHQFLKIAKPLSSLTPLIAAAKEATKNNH

p38γ = biological target: T14, p38γ (Homo sapiens, UniProt P53778)
T14 construct: purchased Eurofins DiscoverX, LLC; host or cells: E. coli (BL21-derived, T7 phage) or HEK-293
T14 sequence (P53778 1-367): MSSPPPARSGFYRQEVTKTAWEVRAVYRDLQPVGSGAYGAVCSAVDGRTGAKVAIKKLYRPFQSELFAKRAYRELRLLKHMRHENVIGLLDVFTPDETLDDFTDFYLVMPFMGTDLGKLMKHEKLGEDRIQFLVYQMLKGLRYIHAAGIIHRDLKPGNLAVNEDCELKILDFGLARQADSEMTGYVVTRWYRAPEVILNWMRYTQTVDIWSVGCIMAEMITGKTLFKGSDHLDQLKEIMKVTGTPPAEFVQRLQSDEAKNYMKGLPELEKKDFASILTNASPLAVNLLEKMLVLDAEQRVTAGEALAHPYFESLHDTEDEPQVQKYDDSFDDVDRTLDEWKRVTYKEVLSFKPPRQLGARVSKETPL

ALK = biological target: T15, ALK (Homo sapiens, UniProt Q9UM73)
T15 construct: purchased Eurofins DiscoverX, LLC; host or cells: E. coli BL21-derived (T7 phage) or HEK-293

Structure (SMILES)	RA @ 1000nM [1]	RA @ 10000nM [1]	RA @ 1000nM (MLK1)	RA @ 10000nM (MLK1)	RA @ 1000nM (PIK3C2B)	RA @ 10000nM (PIK3C2B)	RA @ 1000nM (RAF1)	RA @ 10000nM (RAF1)	RA @ 1000nM (PAK4)	RA @ 10000nM (PAK4)	RA @ 1000nM (FGFR3)	RA @ 10000nM (FGFR3)	RA @ 1000nM (IGF1R)	RA @ 10000nM (IGF1R)	RA @ 1000nM (ERBB4)	RA @ 10000nM (ERBB4)	RA @ 1000nM [2]	RA @ 10000nM [2]	RA @ 1000nM (RET)	RA @ 10000nM (RET)	other results
CC(C)Cn1ncc2cc(Cc3ccc(F)cc3F)c(C(=O)NCCN(C)C)cc21 [Compound 94, 5-(2,4-Difluorobenzyl)-N-(2-(dimethylamino)ethyl)-1-isobutyl-1H-indazole-6-carboxamide]	96%	55%	100%	100%	90%	82%	100%	100%	97%	96%	100%	100%	94%	84%	85%	83%	93%	90%	100%	100%	RA @ 1000nM (PIM3): 100%; RA @ 10000nM (PIM3): 100%; RA @ 1000nM (DCAMKL1): 100%; RA @ 10000nM (DCAMKL1): 100%; RA @ 1000nM (PAK1): 96%; RA @ 10000nM (PAK1): 94%; RA @ 1000nM (p38γ): 93%; RA @ 10000nM (p38γ): 94%; RA @ 1000nM (ALK): 93%; RA @ 10000nM (ALK): 83%
CN(C)CCNC(=O)c1cc2c(cnn2CC2CCCCC2)cc1Cc1ccc(F)cc1F [Compound 95, 1-(Cyclohexylmethyl)-5-(2,4-difluorobenzyl)-N-(2-(dimethylamino)ethyl)-1H-indazole-6-carboxamide]	96%	93%	100%	90%	91%	91%	100%	100%	100%	88%	100%	92%	100%	93%	93%	81%	72%	91%	100%	100%	RA @ 1000nM (PIM3): 100%; RA @ 10000nM (PIM3): 100%; RA @ 1000nM (DCAMKL1): 100%; RA @ 10000nM (DCAMKL1): 100%; RA @ 1000nM (PAK1): 100%; RA @ 10000nM (PAK1): 93%; RA @ 1000nM (p38γ): 100%; RA @ 10000nM (p38γ): 99%; RA @ 1000nM (ALK): 62%; RA @ 10000nM (ALK): 92%
